This note sets out measurements from PubChem BioAssay (NCI).

Molecules are shown by their SMILES.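 How tested: cells in 96-well plates exposed to compound for 48 hours at five concentrations. TGI is the concentration that stops growth completely.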

Test systems include ACHN renal; CAKI-1 renal; HCT-116 colon; IGROV1 ovarian; LOX IMVI melanoma; OVCAR-8 ovarian; SK-MEL-5 melanoma; UACC-257 melanoma; DU-145 prostate.
Common to all, as to assay: NCI-60 cell line screen, 48 h

As for `Cc1ccccc1NC(=O)c1[nH]c(=S)nc(N)c1-c1ccccc1C`, the TGI with ACHN renal, with CAKI-1 renal, with HCT-116 colon, in the assay with IGROV1 ovarian, in the assay on LOX IMVI melanoma and with OVCAR-8 ovarian was above 100 µM in each case. The TGI in the assay with SK-MEL-5 melanoma and in the assay on UACC-257 melanoma was above 100 µM each time.

With `CCOC(=O)C(=Cc1ccccc1Br)C(=O)OCC`, the TGI with ACHN renal is 6.01 µM; in the assay on CAKI-1 renal, 6.83 µM; with DU-145 prostate, 2.68 µM; with HCT-116 colon it was above 100 µM; with IGROV1 ovarian, 4.62 µM; in the assay with OVCAR-8 ovarian, 5.6 µM. Also, the TGI is 3.85 µM with SK-MEL-5 melanoma and 14.7 µM with UACC-257 melanoma.

Turning to `CCCCCCCCCCCCC(Br)C(=O)SCCNC(=O)CCNC(=O)[C@@H](O)C(C)(C)COP(=O)(O)OP(=O)(O)OCC1OC(n2cnc3c(N)ncnc32)C(O)C1OP(=O)(O)O` (stereo not given in full), the TGI in the assay on ACHN renal, in the assay with HCT-116 colon, with IGROV1 ovarian, in the assay with LOX IMVI melanoma, with OVCAR-8 ovarian and with SK-MEL-5 melanoma was above 56.5 µM in each case. The TGI with UACC-257 melanoma is 40.4 µM.

As for `COC(=O)/C(C#N)=C1\N=NNN1CCCc1ccccc1`, the TGI in the assay with ACHN renal, in the assay with CAKI-1 renal, in the assay with HCT-116 colon, in the assay on IGROV1 ovarian, in the assay on LOX IMVI melanoma and in the assay with OVCAR-8 ovarian was above 100 µM throughout. Moreover, the TGI in the assay on SK-MEL-5 melanoma and in the assay with UACC-257 melanoma was above 100 µM throughout.

`COc1ccccc1NC(=O)C1=C(C)NC(C)=C(C(=O)Nc2ccccc2OC)C1c1ccc(C(C)C)cc1`: the TGI in the assay on ACHN renal, in the assay with CAKI-1 renal, in the assay on HCT-116 colon, in the assay with IGROV1 ovarian, in the assay on LOX IMVI melanoma and with OVCAR-8 ovarian was above 100 µM in each case. The TGI in the assay with SK-MEL-5 melanoma and with UACC-257 melanoma was above 100 µM each time.

With `CCOC1NC(=O)Oc2ccccc21` (stereo not given), the TGI in the assay on ACHN renal, in the assay with CAKI-1 renal, in the assay with DU-145 prostate, in the assay with HCT-116 colon, with IGROV1 ovarian and in the assay with LOX IMVI melanoma was above 100 µM in each case. Also, the TGI in the assay with OVCAR-8 ovarian, with SK-MEL-5 melanoma and with UACC-257 melanoma was above 100 µM throughout.

`CC1OC(OP(=O)(OCc2ccccc2)OCc2ccccc2)C(OC(=O)c2ccccc2)C(OC(=O)c2ccccc2)C1I` (stereo not given): the TGI in the assay with ACHN renal, in the assay on CAKI-1 renal, with HCT-116 colon, in the assay on IGROV1 ovarian, in the assay on LOX IMVI melanoma and with OVCAR-8 ovarian was above 100 µM in each case. The TGI in the assay with SK-MEL-5 melanoma and in the assay with UACC-257 melanoma was above 100 µM in each case.

Turning to `O=C(/C=C/c1ccccc1F)C(c1ccccc1)c1ccccc1`, the TGI amounted to 7.66 µM with ACHN renal; 17.8 µM in the assay with CAKI-1 renal; 6.4 µM in the assay with HCT-116 colon; 30.7 µM in the assay with IGROV1 ovarian; 3.2 µM in the assay with LOX IMVI melanoma; 17.7 µM with UACC-257 melanoma.

Consider `C/C=C/C1(NS(=O)(=O)c2ccc(C)cc2)CCC(C(C)(C)C)CC1` (stereo not given), for which the TGI in the assay on ACHN renal is above 100 µM; in the assay with CAKI-1 renal, 98.1 µM; with HCT-116 colon it was 36 µM; in the assay with IGROV1 ovarian it was 77.2 µM; in the assay on OVCAR-8 ovarian, above 100 µM; in the assay with SK-MEL-5 melanoma, 31.8 µM. The molecule further came in with a TGI in the assay with UACC-257 melanoma of 56 µM.

For `CC(C)(C)c1ccccc1NS(=O)(=O)c1ccccc1`, the TGI in the assay with ACHN renal, in the assay on CAKI-1 renal, with HCT-116 colon, in the assay with IGROV1 ovarian, with OVCAR-8 ovarian and in the assay on SK-MEL-5 melanoma was above 100 µM throughout. The molecule further registered a TGI in the assay with UACC-257 melanoma above 100 µM.

On to `Cc1c(Cl)cccc1NC(=O)C(=O)C1C(=O)NC(=O)NC1=O`, for which the TGI in the assay with ACHN renal, in the assay on CAKI-1 renal, with HCT-116 colon, in the assay on IGROV1 ovarian, in the assay with LOX IMVI melanoma and in the assay on OVCAR-8 ovarian was above 100 µM in each case. Moreover, the TGI with SK-MEL-5 melanoma and with UACC-257 melanoma was above 100 µM throughout.

Regarding `CC(C)(C)c1cc(C(O)(C(F)(F)F)C(F)(F)F)c2c(c1)C(C(F)(F)F)(C(F)(F)F)OC(c1ccccc1)(C(C)(C)C)N2` (stereo not given), the TGI was found to be 14 µM in the assay on ACHN renal; 16.4 µM with CAKI-1 renal; 13.2 µM in the assay with HCT-116 colon; 16.7 µM with IGROV1 ovarian; 26.2 µM in the assay with OVCAR-8 ovarian; 10.3 µM in the assay on SK-MEL-5 melanoma. In the assay on UACC-257 melanoma, this molecule yielded a TGI of 19.7 µM.

Consider `CCOC(=O)[C@H]1Nc2ccc(O)cc2C2c3ccccc3CC21` (stereo not given in full), for which the TGI in the assay on ACHN renal, in the assay on CAKI-1 renal, in the assay on HCT-116 colon, in the assay with IGROV1 ovarian, in the assay with LOX IMVI melanoma and with OVCAR-8 ovarian was above 100 µM each time. For the same molecule, the TGI in the assay on SK-MEL-5 melanoma and with UACC-257 melanoma was above 100 µM in each case.

On to `O=C1C(c2ccccc2)=C(c2ccccc2)C(c2ccccc2)/C1=C1\C(=O)C(c2ccccc2)=C(c2ccccc2)C1c1ccccc1` (stereo not given), for which the TGI in the assay with ACHN renal, in the assay with CAKI-1 renal, in the assay with HCT-116 colon, in the assay with IGROV1 ovarian, in the assay on LOX IMVI melanoma and in the assay on OVCAR-8 ovarian was above 100 µM throughout. The TGI in the assay with SK-MEL-5 melanoma and in the assay on UACC-257 melanoma was above 100 µM throughout.

As to `O=Cc1cc(O)c(O)c(O)c1-c1c(C=O)cc(O)c(O)c1O`, the TGI in the assay on ACHN renal, in the assay on CAKI-1 renal, in the assay with HCT-116 colon, in the assay on IGROV1 ovarian, in the assay with LOX IMVI melanoma and with OVCAR-8 ovarian was above 100 µM each time. The TGI in the assay with SK-MEL-5 melanoma and in the assay on UACC-257 melanoma was above 100 µM in each case.

As to `Cc1cc(Cl)ccc1N1C(=O)C(=O)C(c2nc3ccccc3s2)C(=O)C1=O`, the TGI in the assay on ACHN renal, in the assay with CAKI-1 renal, with HCT-116 colon, with IGROV1 ovarian, in the assay on OVCAR-8 ovarian and in the assay on SK-MEL-5 melanoma was above 100 µM in each case. The molecule also returned a TGI in the assay on UACC-257 melanoma above 100 µM.

Take `Cc1cc2c(=O)cc(-c3ccc(Cl)cc3)oc2c(C(=O)O)c1C`: the TGI in the assay on ACHN renal, in the assay on CAKI-1 renal, in the assay with HCT-116 colon, with IGROV1 ovarian, in the assay on LOX IMVI melanoma and in the assay with OVCAR-8 ovarian was above 100 µM in each case. Further, the TGI in the assay with SK-MEL-5 melanoma and in the assay with UACC-257 melanoma was above 100 µM each time.
